Source: ChEMBL document CHEMBL4419167, “Compositions and methods for treating respiratory injury or disease” (2018)
Activity calls are given as the source filed them. No cut-off for these calls is given here.

Test system: Mus musculus
Test: Suppression of lung injury in mouse model of influenza A virus H1N1 infection-induced lung injury assessed as decrease in lung resistance at 30 ug/ml dosed via drinking water
Type: functional, organism-based

**Q.** For `c1ccc(-c2ccc(CNCCNCc3ccc(-c4ccccn4)cc3)cc2)nc1`, which Activity is on record?
**A.** Active
